From the NIST ThermoML archive (doi:10.1021/je049762q)
Where “and” joins values, the source holds several entries; their conditions need not be identical. Equal values may be shown once. Numbers after ± are expanded uncertainties.

Assay: molar heat capacity at constant pressure
Details: 101.33 kPa, Crystal

For `Clc1cc(Cl)cc(Cl)c1` [1,3,5-trichlorobenzene], the “molar heat capacity at constant pressure” value (93.56 K) was 72.31 ± 0.54 J/K/mol, the “molar heat capacity at constant pressure” value (94.61 K) was 72.86 ± 0.55 J/K/mol and the “molar heat capacity at constant pressure” value (94.95 K) was 73 ± 0.55 J/K/mol. For the same compound, the “molar heat capacity at constant pressure” value (95.84 K) was 73.25 ± 0.55 J/K/mol, the “molar heat capacity at constant pressure” value (96.07 K) was 73.4 ± 0.55 J/K/mol and the “molar heat capacity at constant pressure” value (97.51 K) was 74.13 ± 0.55 J/K/mol. For the same compound, the “molar heat capacity at constant pressure” value (98.08 K) was 74.45 ± 0.55 J/K/mol, the “molar heat capacity at constant pressure” value (98.92 K) was 74.86 ± 0.55 J/K/mol and the “molar heat capacity at constant pressure” value (100 K) was 75.37 ± 0.55 J/K/mol. For the same compound, the “molar heat capacity at constant pressure” value (100.29 K) was 74.9 ± 0.55 J/K/mol, the “molar heat capacity at constant pressure” value (101.72 K) was 76.37 ± 0.55 J/K/mol and the “molar heat capacity at constant pressure” value (102.39 K) was 76.72 ± 0.55 J/K/mol. The “molar heat capacity at constant pressure” value (102.47 K) was 76.71 ± 0.55 J/K/mol, the “molar heat capacity at constant pressure” value (103.09 K) was 76.88 ± 0.55 J/K/mol and the “molar heat capacity at constant pressure” value (104.45 K) was 77.52 ± 0.56 J/K/mol. The “molar heat capacity at constant pressure” value (104.61 K) was 77.48 ± 0.56 J/K/mol, the “molar heat capacity at constant pressure” value (105.8 K) was 78.18 ± 0.56 J/K/mol and the “molar heat capacity at constant pressure” value (105.97 K) was 78.26 ± 0.56 J/K/mol. For the same compound, the “molar heat capacity at constant pressure” value (106.72 K) was 78.56 ± 0.56 J/K/mol, the “molar heat capacity at constant pressure” value (107.13 K) was 78.9 ± 0.56 J/K/mol and the “molar heat capacity at constant pressure” value (107.15 K) was 78.92 ± 0.56 J/K/mol. The “molar heat capacity at constant pressure” value (108.46 K) was 79.49 ± 0.56 J/K/mol, the “molar heat capacity at constant pressure” value (108.81 K) was 79.58 ± 0.56 J/K/mol and the “molar heat capacity at constant pressure” value (109.46 K) was 80.02 ± 0.56 J/K/mol. The “molar heat capacity at constant pressure” value (109.77 K) was 80.18 ± 0.56 J/K/mol, the “molar heat capacity at constant pressure” value (110 K) was 80.28 ± 0.56 J/K/mol and the “molar heat capacity at constant pressure” value (110.87 K) was 80.59 ± 0.56 J/K/mol. For the same compound, the “molar heat capacity at constant pressure” value (111.07 K) was 80.74 ± 0.56 J/K/mol, the “molar heat capacity at constant pressure” value (111.47 K) was 80.93 ± 0.56 J/K/mol and the “molar heat capacity at constant pressure” value (112.36 K) was 81.34 ± 0.56 J/K/mol. For the same compound, the “molar heat capacity at constant pressure” value (112.87 K) was 81.56 ± 0.56 J/K/mol, the “molar heat capacity at constant pressure” value (113.65 K) was 81.98 ± 0.56 J/K/mol and the “molar heat capacity at constant pressure” value (114.92 K) was 82.54 ± 0.57 J/K/mol and 82.67 ± 0.57 J/K/mol. For the same compound, the “molar heat capacity at constant pressure” value (115.68 K) was 83.09 ± 0.57 J/K/mol, the “molar heat capacity at constant pressure” value (116.19 K) was 83.21 ± 0.57 J/K/mol and the “molar heat capacity at constant pressure” value (116.91 K) was 83.54 ± 0.57 J/K/mol. For the same compound, the “molar heat capacity at constant pressure” value (118.88 K) was 84.5 ± 0.57 J/K/mol, the “molar heat capacity at constant pressure” value (119.52 K) was 84.75 ± 0.57 J/K/mol and the “molar heat capacity at constant pressure” value (119.79 K) was 85.04 ± 0.57 J/K/mol. For the same compound, the “molar heat capacity at constant pressure” value (120 K) was 85.15 ± 0.57 J/K/mol, the “molar heat capacity at constant pressure” value (120.83 K) was 85.51 ± 0.57 J/K/mol and the “molar heat capacity at constant pressure” value (122.75 K) was 86.55 ± 0.57 J/K/mol. The “molar heat capacity at constant pressure” value (124.68 K) was 87.28 ± 0.57 J/K/mol, the “molar heat capacity at constant pressure” value (125.93 K) was 87.73 ± 0.58 J/K/mol and the “molar heat capacity at constant pressure” value (126.58 K) was 88.03 ± 0.58 J/K/mol. The “molar heat capacity at constant pressure” value (127.78 K) was 88.73 ± 0.58 J/K/mol, the “molar heat capacity at constant pressure” value (128.47 K) was 88.92 ± 0.58 J/K/mol and the “molar heat capacity at constant pressure” value (129.07 K) was 89.19 ± 0.58 J/K/mol. For the same compound, the “molar heat capacity at constant pressure” value (130 K) was 89.68 ± 0.58 J/K/mol, the “molar heat capacity at constant pressure” value (130.33 K) was 89.86 ± 0.58 J/K/mol and the “molar heat capacity at constant pressure” value (131.66 K) was 90.66 ± 0.58 J/K/mol. The “molar heat capacity at constant pressure” value (132.19 K) was 90.72 ± 0.58 J/K/mol, the “molar heat capacity at constant pressure” value (134.03 K) was 91.56 ± 0.58 J/K/mol and the “molar heat capacity at constant pressure” value (135.22 K) was 92.02 ± 0.58 J/K/mol. For the same compound, the “molar heat capacity at constant pressure” value (135.48 K) was 92.36 ± 0.58 J/K/mol, the “molar heat capacity at constant pressure” value (135.85 K) was 92.4 ± 0.58 J/K/mol and the “molar heat capacity at constant pressure” value (137.66 K) was 93.21 ± 0.59 J/K/mol. The “molar heat capacity at constant pressure” value (138.23 K) was 93.42 ± 0.59 J/K/mol, the “molar heat capacity at constant pressure” value (139.24 K) was 94.03 ± 0.59 J/K/mol and the “molar heat capacity at constant pressure” value (140 K) was 94.33 ± 0.59 J/K/mol. The “molar heat capacity at constant pressure” value (141.21 K) was 94.75 ± 0.59 J/K/mol, the “molar heat capacity at constant pressure” value (141.25 K) was 94.81 ± 0.59 J/K/mol and the “molar heat capacity at constant pressure” value (142.95 K) was 95.67 ± 0.59 J/K/mol. For the same compound, the “molar heat capacity at constant pressure” value (144.16 K) was 96.04 ± 0.59 J/K/mol, the “molar heat capacity at constant pressure” value (146.61 K) was 97.27 ± 0.59 J/K/mol and the “molar heat capacity at constant pressure” value (147.08 K) was 97.34 ± 0.59 J/K/mol. The “molar heat capacity at constant pressure” value (149.97 K) was 98.63 ± 0.6 J/K/mol, the “molar heat capacity at constant pressure” value (150 K) was 98.65 ± 0.6 J/K/mol and the “molar heat capacity at constant pressure” value (150.22 K) was 98.83 ± 0.6 J/K/mol. For the same compound, the “molar heat capacity at constant pressure” value (152.83 K) was 99.87 ± 0.6 J/K/mol, the “molar heat capacity at constant pressure” value (153.79 K) was 100.35 ± 0.6 J/K/mol and the “molar heat capacity at constant pressure” value (155.66 K) was 101.1 ± 0.6 J/K/mol. The “molar heat capacity at constant pressure” value (157.32 K) was 101.86 ± 0.6 J/K/mol, the “molar heat capacity at constant pressure” value (158.47 K) was 102.3 ± 0.6 J/K/mol and the “molar heat capacity at constant pressure” value (160 K) was 102.99 ± 0.61 J/K/mol. For the same compound, the “molar heat capacity at constant pressure” value (160.81 K) was 103.34 ± 0.61 J/K/mol, the “molar heat capacity at constant pressure” value (161.25 K) was 103.49 ± 0.61 J/K/mol and the “molar heat capacity at constant pressure” value (164.01 K) was 104.67 ± 0.61 J/K/mol. The “molar heat capacity at constant pressure” value (164.27 K) was 104.83 ± 0.61 J/K/mol, the “molar heat capacity at constant pressure” value (166.74 K) was 105.83 ± 0.61 J/K/mol and the “molar heat capacity at constant pressure” value (167.69 K) was 106.28 ± 0.61 J/K/mol. For the same compound, the “molar heat capacity at constant pressure” value (169.46 K) was 106.98 ± 0.61 J/K/mol and the “molar heat capacity at constant pressure” value (170 K) was 107.22 ± 0.61 J/K/mol.
